Laboratory results: patent US4318916A, “Antibiotic PS-5 and derivatives having β-lactamase inhibitory activity and production thereof” (Sanraku-Ocean Co., Ltd., priority 1977, dated 1982)
Values after ≈ are worked out from the molar mass of the structure shown. Like-named read-outs stand apart in the source and are kept apart here.

Assays:
[1] = system: Staphylococcus aureus Smith; assay: Therapeutic activity of antibiotic PS-5 sodium salt in infected mice; assay type: in vivo; details: mice infected with pathogenic Gram-positive bacteria
Description: The therapeutic activity of the antibiotic PS-5 sodium salt was studied by treating mice intraperitoneally infected with 5×10^5 cells/mouse of Staphylococcus aureus Smith. Soon after the infection, an aqueous solution of the antibiotic PS-5 sodium salt was subcutaneously injected.

[2] = pH and heat stability of antibiotic PS-5 in aqueous solution; assay type: physicochemical; details: for remaining at 0.25 h: water, pH 9, at least 15 min of heating at 60° C., aqueous solution, around neutral to weakly alkaline pH below pH 9
Proteus vulgaris P-5 [3] = assay: Filter paper strip synergism test; assay type: cell-based; details: Proteus vulgaris P-5 (beta-lactamase producer); crossed filter paper strips, 18 hours at 35° C.
Procedure: On an assay plate of nutrient agar seeded by a beta-lactam-resistant strain of Proteus vulgaris P-5 (beta-lactamase producer), two filter paper strips containing penicillin G or cephaloridine and two strips containing antibiotic PS-5 were applied to form a square where two strips of the […] antibiotic were contacted at one corner. The antimicrobial activity was read after incubation for 18 hours at 35° C. When suitable concentrations of penicillin G or cephaloridine and antibiotic PS-5 were chosen, the inhibition area was observed only at the corners where both antibiotic PS-5 and penicillin G or cephaloridine were present, but not at the corners where antibiotic PS-5, penicillin G or cephaloridine was solely present. […] That is, when two kinds of compounds were combined at concentrations that were low enough not to give an inhibition zone with a component alone, the large inhibition thus appearing with the combination was due to synergism.

[4] = pH and heat stability of antibiotic PS-5 in aqueous solution; assay type: physicochemical; details: phosphate buffer, yellowish brown powder of Example 5
Procedure: Phosphate buffer solutions of the indicated pH's were made by adjusting M/15 dipotassium phosphate to a desired pH with 5 N NaOH or 5 N phosphoric acid. To 1 milliliter of the antibiotic PS-5 solution, 1 milliliter of the phosphate buffer was added and, if necessary, the pH value was readjusted to the initial value. The antibiotic PS-5 solutions with varied pH's were kept at 60° C. for 30 minutes in a water bath, cooled in running water and neutralized to pH 7.0 with a small amount of 5 N NaOH or 5 N phosphoric acid. The control tube containing the antibiotic PS-5 solution of pH 7.0 was put in an ice bath for 30 minutes. The remaining antimicrobial activity was determined as described above, utilizing Comamonas terrigena B-996 as the assay microorganism. The results shown in the following table were calculated as percent of the control: […]

[5] = Solubility of antibiotic PS-5; assay type: physicochemical
[6] = system: Staphylococcus aureus Smith; assay: MIC by broth dilution (Table 13); assay type: cell-based; details: 20 h
Procedure: (§1) The MIC (minimum inhibitory concentration) values of the compound were determined on various pathogenic microorganisms including several resistant strains, utilizing the broth dilution method in BRAIN HEART INFUSION BROTH `Eiken` (EIKEN CHEMICAL CO., LTD.).
(§2) The results were read after incubation at 35° C. for 20 hours. The minimum inhibitory concentration (MIC) values means the lowest concentration unit of the tritylation product of the antibiotic PS-5 was no growth of the corresponding microorganism was observed under the above described conditions. As the control antibiotics,the solutions of ampicillin and cephaloridine were prepared in BRAIN HEART INFUSION BROTH `Eiken` (pH 7.0) at a concentration of 100 μg/ml and treated same as the test compound of the present invention.

[7] = system: Pseudomonas aeruginosa P-1; assay: MIC by broth dilution (Table 13); assay type: cell-based; details: P1, 20 h
Procedure: as §1, §2

Proteus rettgeri P-7 = assay: MIC by broth dilution (Table 13); assay type: cell-based; details: Providencia rettgeri, P7, 20 h
Procedure: as §1, §2

Enterobacter sp. E-8 = assay: MIC by broth dilution (Table 13); assay type: cell-based; details: SP.E8, 20 h
Procedure: as §1, §2

Escherichia coli K12 = assay: MIC by broth dilution (Table 13); assay type: cell-based; details: 20 h
Procedure: as §1, §2

[8] = system: Alcaligenes faecalis B-326; assay: MIC by broth dilution (Table 13); assay type: cell-based; details: B326, 20 h
Procedure: as §1, §2

[9] = system: Staphylococcus aureus FDA 209p; assay: MIC by broth dilution (Table 13); assay type: cell-based; details: FDA209P, 20 h
Procedure: as §1, §2

Sarcina lutea S-19 = assay: MIC by broth dilution (Table 13); assay type: cell-based; details: Micrococcus luteus, S19, 20 h
Procedure: as §1, §2

[10] = system: Diplococcus pneumoniae Type III; assay: MIC by broth dilution (Table 13); assay type: cell-based; details: Streptococcus pneumoniae, 20 h
Procedure: as §1, §2

Citrobacter freundii E-9 = assay: MIC by broth dilution (Table 13); assay type: cell-based; details: E9, 20 h
Procedure: as §1, §2

Proteus mirabilis P-6 = assay: MIC by broth dilution (Table 13); assay type: cell-based; details: P6, 20 h
Procedure: as §1, §2

[11] = system: Streptococcus pyogenes NY-5; assay: MIC by broth dilution (Table 13); assay type: cell-based; details: NY5, 20 h
Procedure: as §1, §2

Proteus vulgaris P-5 [12] = assay: MIC by broth dilution (Table 13); assay type: cell-based; details: P5, 20 h
Procedure: as §1, §2

[13] = system: Klebsiella pneumoniae K-2; assay: MIC by broth dilution (Table 13); assay type: cell-based; details: K2, 20 h
Procedure: as §1, §2

For `CCC1C(=O)N2C(C(=O)O)=C(SCCNC(C)=O)CC12` (single isomer, unassigned) [Antibiotic PS-5], which “Therapeutic effect in infected mice” value [1] is on record?
Its value is “marked therapeutic effect”.

And the remaining at 5 min ([2]; pH 3, pH 3.0 for 5 minutes at -17° C., read-out: Initial antibiotic activity still detected)?
The remaining at 5 min was ≥ 30%.

What about the remaining at 0.25 h ([2]; read-out: Antibiotic activity remaining) of the same compound?
Its remaining at 0.25 h is ≥ 50%.

What about the remaining at 0.25 h ([2]; usual value, read-out: Antibiotic activity remaining, usually) of the same compound?
Its remaining at 0.25 h is > 70%.

What about the “Synergism with penicillin G or cephaloridine” value (Proteus vulgaris P-5 [3]) of the same compound?
Its value is “synergism between the antibiotic PS-5 and penicillin G or cephaloridine”.

What about the remaining at 0.5 h ([4]; pH 3, pH 3.0, 60° C. for 30 minutes, percent of control) of the same compound?
The remaining at 0.5 h was 0%.

And the remaining at 0.5 h ([4]; pH 4, pH 4.0, 60° C. for 30 minutes)?
Its remaining at 0.5 h is 0%.

And the remaining at 0.5 h ([4]; pH 5, pH 5.0, 60° C. for 30 minutes)?
The remaining at 0.5 h was 9%.

And the remaining at 0.5 h ([4]; pH 6, pH 6.0, 60° C. for 30 minutes)?
The remaining at 0.5 h was 79%.

What about the remaining at 0.5 h ([4]; pH 7, pH 7.0, 60° C. for 30 minutes) of the same compound?
The remaining at 0.5 h was 76.5%.

What about the remaining at 0.5 h ([4]; pH 8, pH 8.0, 60° C. for 30 minutes) of the same compound?
Its remaining at 0.5 h is 88.5%.

And the remaining at 0.5 h ([4]; pH 9, pH 9.0, 60° C. for 30 minutes)?
Its remaining at 0.5 h is 82%.

And the “Solubility in ethyl acetate and benzene” value ([5]; at pH above 4)?
Its value is “substantially insoluble”.

What about the Solubility in water ([5]; water at pH 6 to 9) of the same compound?
The Solubility in water was “soluble”.

Which MIC ([6]; Staphylococcus aureus Smith, read-out: MIC) does the source give for `CCC1C(=O)N2C(C(=O)OC(c3ccccc3)(c3ccccc3)c3ccccc3)=C(SCCNC(C)=O)CC12` (single isomer, unassigned) [Trityl PS-5] here?
The MIC was 0.27 µg/mL (≈ 0.499 µM).

And the MIC ([7]; Pseudomonas aeruginosa P-1, read-out: MIC)?
The MIC was > 43 µg/mL.

And the MIC (Proteus rettgeri P-7; Proteus rettgeri P-7, read-out: MIC)?
The MIC was 10 µg/mL (≈ 18.5 µM).

And the MIC (Enterobacter sp. E-8; Enterobacter sp. E-8, read-out: MIC)?
The MIC was 10 µg/mL (≈ 18.5 µM).

What about the MIC (Escherichia coli K12) of the same compound?
The MIC was 5.37 µg/mL (≈ 9.93 µM).

What about the MIC ([8]; Alcaligenes faecalis B-326, read-out: MIC) of the same compound?
The MIC was 1.25 µg/mL (≈ 2.31 µM).

What about the MIC ([9]; Staphylococcus aureus FDA 209p, read-out: MIC) of the same compound?
The MIC was 0.17 µg/mL (≈ 0.314 µM).

And the MIC (Sarcina lutea S-19; Sarcina lutea S-19, read-out: MIC)?
Its MIC is 0.27 µg/mL (≈ 0.499 µM).

What about the MIC ([10]; Diplococcus pneumoniae Type III, read-out: MIC) of the same compound?
Its MIC is 0.08 µg/mL (≈ 0.148 µM).

What about the MIC (Citrobacter freundii E-9; Citrobacter freundii E-9, read-out: MIC) of the same compound?
The MIC was 5 µg/mL (≈ 9.25 µM).

And the MIC (Proteus mirabilis P-6; Proteus mirabilis P-6, read-out: MIC)?
Its MIC is 21.5 µg/mL (≈ 39.8 µM).

And the MIC ([11]; Streptococcus pyogenes NY-5, read-out: MIC)?
The MIC was 0.17 µg/mL (≈ 0.314 µM).

And the MIC (Proteus vulgaris P-5 [12]; Proteus vulgaris P-5, read-out: MIC)?
The MIC was 21.5 µg/mL (≈ 39.8 µM).

What about the MIC ([13]; Klebsiella pneumoniae K-2, read-out: MIC) of the same compound?
Its MIC is 10.7 µg/mL (≈ 19.8 µM).

Which MIC ([6]; Staphylococcus aureus) does the source give for `O=C(Cc1cccs1)N[C@@H]1C(=O)N2C(C(=O)[O-])=C(C[n+]3ccccc3)CS[C@H]12` [Cephaloridine, cephaloridine] here?
Its MIC is 0.04 µg/mL (≈ 0.0963 µM).

And the MIC ([7]; Pseudomonas aeruginosa)?
Its MIC is > 20 µg/mL.

And the MIC (Proteus rettgeri P-7)?
The MIC was 50 µg/mL (≈ 120 µM).

And the MIC (Enterobacter sp. E-8; Enterobacter)?
Its MIC is > 100 µg/mL.

And the MIC (Escherichia coli K12)?
Its MIC is 2.5 µg/mL (≈ 6.02 µM).

And the MIC ([8]; Alcaligenes faecalis)?
The MIC was 6.25 µg/mL (≈ 15 µM).

What about the MIC ([9]; Staphylococcus aureus) of the same compound?
Its MIC is 0.04 µg/mL (≈ 0.0963 µM).

What about the MIC (Sarcina lutea S-19) of the same compound?
The MIC was 0.05 µg/mL (≈ 0.12 µM).

What about the MIC [10] of the same compound?
Its MIC is 0.01 µg/mL (≈ 0.0241 µM).

And the MIC (Citrobacter freundii E-9; Citrobacter freundii)?
The MIC was > 100 µg/mL.

And the MIC (Proteus mirabilis P-6; Proteus mirabilis)?
Its MIC is 10 µg/mL (≈ 24.1 µM).

What about the MIC ([11]; Streptococcus pyogenes) of the same compound?
The MIC was 0.01 µg/mL (≈ 0.0241 µM).

And the MIC (Proteus vulgaris P-5 [12]; Proteus vulgaris)?
Its MIC is > 20 µg/mL.

And the MIC ([13]; Klebsiella pneumoniae)?
Its MIC is 10 µg/mL (≈ 24.1 µM).
